Assay results from the NIST ThermoML archive (doi:10.1021/je060411g).

Experiment: molar heat capacity at constant pressure
Conditions: 101.33 kPa, Liquid

CCCC(C)O (stereo not drawn) [pentan-2-ol]
Conditions | molar heat capacity at constant pressure [J/K/mol]
168.38 K | 149.64
169.15 K | 148.62
171.15 K | 148.98
171.34 K | 150.12
173.15 K | 149.17
174.31 K | 150.62
175.15 K | 149.61
177.14 K | 150.03
177.27 K | 151.24
179.14 K | 150.37
180.22 K | 151.84
181.14 K | 150.83
183.13 K | 151.22
183.15 K | 152.41
185.13 K | 151.66
186.06 K | 153.18
187.13 K | 152.22
188.97 K | 153.85
189.12 K | 152.69
191.11 K | 153.28
191.86 K | 154.61
193.1 K | 153.79
194.73 K | 155.46
195.09 K | 154.43
197.08 K | 155.04
197.6 K | 156.28
199.07 K | 155.64
200.45 K | 157.17
201.05 K | 156.37
203.04 K | 157.14
203.28 K | 158.12
205.02 K | 157.9
206.11 K | 159.16
207 K | 158.71
208.92 K | 160.23
208.98 K | 159.59
210.96 K | 160.43
211.71 K | 161.38
212.93 K | 161.43
214.5 K | 162.6
214.9 K | 162.36
216.87 K | 163.53
217.27 K | 163.98
218.83 K | 164.58
220.03 K | 165.38
220.79 K | 165.86
222.74 K | 167.19
222.77 K | 166.74
224.69 K | 168.3
225.5 K | 168.21
226.64 K | 169.58
228.21 K | 169.75
228.58 K | 170.97
230.52 K | 172.4
230.92 K | 171.38
232.46 K | 173.26
233.61 K | 173.02
234.41 K | 174.28
236.28 K | 174.82
236.37 K | 175.25
238.35 K | 176.25
238.94 K | 176.57
240.33 K | 177.32
241.59 K | 178.24
242.31 K | 178.65
244.22 K | 179.98
244.29 K | 180.19
246.27 K | 181.71
246.84 K | 181.91
248.24 K | 183.24
249.45 K | 183.85
250.22 K | 184.81
252.04 K | 185.96
252.19 K | 186.49
254.17 K | 187.53
254.62 K | 187.26
256.15 K | 189.21
257.2 K | 189.4
258.13 K | 190.9
259.75 K | 191.63
260.11 K | 192.75
262.08 K | 194.51
262.3 K | 193.87
264.06 K | 196.4
264.83 K | 196.18
266.04 K | 198.15
267.34 K | 198.56
268.01 K | 200.17
269.84 K | 201.01
269.99 K | 202.16
271.96 K | 204.25
272.33 K | 203.73
273.94 K | 206.27
274.8 K | 206.33
275.91 K | 208.32
277.26 K | 208.61
277.88 K | 210.5
279.7 K | 211.18
279.86 K | 212.62
281.83 K | 214.76
282.13 K | 213.77
283.81 K | 216.99
284.54 K | 216.55
285.79 K | 219.38
286.94 K | 219.25
287.77 K | 221.67
289.33 K | 222.07
289.75 K | 224.09
291.7 K | 224.87
291.73 K | 226.3
293.71 K | 228.63
294.06 K | 227.43
295.69 K | 231.18
296.41 K | 230.08
297.66 K | 233.65
298.75 K | 233
299.65 K | 235.81
301.07 K | 235.62
